In patent EP0238198A2, “Method of modifying the lipid structure function and expression of cell membranes and pharmaceutical compositions for use therein” (Habib, Nagy Adly, priority 1986, dated 1987):

Tests used:
[1] = tested on: D262B Rat hepatoma; test: tumour cell colony inhibition test (clonogenic assay); type: cell-based
[2] = tested on: mammary carcinoma; test: NMU-induced mammary carcinoma in rats, Example 1; type: in vivo, female Sprague-Dawley rats
Procedure: NMU was administered intravenously to thirty female Sprague-Dawley rats weighing approximately 200g. It has been well established that with this animal model breast cancers will develop in the majority by 12 weeks from the commencement of the giving of the carcinogen (Gullino, P.M., Pettigrew, H.M., and Grantham, E.H., I. National Cancer Inst. 1975, 54, 401-409). The rats were divided into two groups, with those of the first group (twenty rats) receiving NMU alone, and those of the second group (ten rats) receiving NMU plus stearic acid. NMU in 3% acetic acid was dissolved in distilled water (20mg/ml) and was given in three intravenous injections of 5mg/100g body weight at weeks 1, 4 and 8. […] The onset of tumours was monitored by daily inspection and by palpation of the mammary regions twice weekly. At week 22, all surviving animals were sacrificed, and autopsies were performed. The tumours located thereby were dissected and examined histologically. In the control animals who were given carcinogen alone 19 out of the 20 animals had developed breast cancers by week 16 of the experiment, with a mean latent period of 72 days. […] The range of tumour weight/rat was 5g to 47.8g with a mean value of 23.6g per rat (excluding the tumour free animal). […] These five rats had seven tumours in all, with a mean of 1.4 tumours per rat (p less than 0.001 compared to the control group). The range of tumour weight/rat was 4.2g to 21.2g, with an average of 16.4g/rat (p less than 0.01 compared to the control group). […] Of the remaining 8 live rats from this group which were killed at week 22, only three had tumours, the other five being tumour-free.

[3] = tested on: D262A Rat hepatoma; test: tumour cell colony inhibition test (clonogenic assay); type: cell-based; set-up: inhibition of colony formation: dose or concentration left out as unconfirmed; conditions: for Mean no colonies ± SE: 5 days, medium control 245.0±11.9
Procedure: (§1) Cells from rat mammary carcinoma (Sp 22), primary rat fibroblasts (from alveolar tissue) and four rat hepatoma cell lines (D23, D261, D262A and D262B) were studied.
(§2) The method used for rat cells was as follows: 200 cells were plated per dish in 1 ml 'Eagles' methionine enriched medium (MEM) + 10% newborn calf serum (NBCS) in 30 mm culture dishes and incubated for four hours at 37°C. All became firmly adherent during this initial incubation. […] Dilutions containing 20 µg/ml, […], 200 ng/ml and 2 ng/ml were prepared, 1 ml of each dilution was added to four dishes of cells, the final concentration being half the concentration of the material added. […] To control dishes 1 ml of MEM + NBCS was added, or 1 ml of MEM + NBCS + 1% ethanol. The dishes were incubated for 5 days. Medium was then removed, and the cell colonies were rinsed with 0.9% W/V NaCl solution and fixed for 15 minutes with methanol. Cell colonies were stained with 1% aqueous crystal violet and the dishes were allowed to dry.

[4] = tested on: Primary rat fibroblasts (from alveolar tissue); test: colony inhibition test (clonogenic assay); type: cell-based; conditions: for Mean no colonies ± SE: 5 days, medium control 55.0±4.6
Procedure: as §1
as §2, with “37°C.” for “37°C. All became firmly adherent during this initial incubation.”

[5] = Rattus norvegicus, 120 h, read-out: % colony formation relative to medium control
[6] = NMU plus stearic acid 10mg s.c. weekly
[7] = Rattus norvegicus, Fibroblast, 120 h, read-out: % colony formation relative to medium control

Compound: CCCCCCCCCCCCCCCCCC(=O)O [stearic acid, octadecanoic acid]
- activity at 0.01 µg/mL [1, 5]: 109%
- Mean no colonies ± SE ([1]; stearic acid 10ng/ml, 5 days, medium control 37.0± 4.0): 40.3± 1.8
- animals that had developed mammary tumours by week 16 ([2]; NMU plus stearic acid 10mg in liquid paraffin s.c. weekly from second week, ten rats, NMU alone 19 out of 20): five of the original ten
- rats with tumours among the 8 live rats killed at week 22 [2, 6]: three
- tumour-free rats among the 8 live rats killed at week 22 [2, 6]: five
- mean tumours per rat ([2]; NMU plus stearic acid 10mg s.c. weekly, NMU alone 2.68, p less than 0.001): 1.4 tumours per rat
- average tumour weight ([2]; NMU plus stearic acid 10mg s.c. weekly, NMU alone 23.6g per rat, p less than 0.01): 16.4 g/rat
- mean latent period ([2]; NMU plus stearic acid 10mg s.c. weekly, NMU alone 72 days): 74 days
- rats that had died by week 22 ([2]; NMU plus stearic acid 10mg s.c. weekly, of ten rats, NMU alone all 19 with tumours died): 2
- inhibition of colony formation [3]: significant inhibition of colony formation
- activity at 0.01 µg/mL [3, 5]: 88%
- activity at 0.1 µg/mL [3, 5]: 101%
- activity at 1 µg/mL [3, 5]: 83.2%
- activity at 10 µg/mL [3, 5]: 74.7%
- activity at 50 µg/mL [3, 5]: 32.4%
- Mean no colonies ± SE ([3]; stearic acid 10ng/ml): 216.0± 8.8
- Mean no colonies ± SE ([3]; stearic acid 100 ng/ml): 247.8± 8.3
- Mean no colonies ± SE ([3]; stearic acid 1μg/ml): 203.8±18.1
- Mean no colonies ± SE ([3]; stearic acid 10 μg/ml): 190.3±13.6
- Mean no colonies ± SE ([3]; stearic acid 50 μg/ml): 79.3± 7.1
- activity at 0.001 µg/mL [4, 7]: 90%
- activity at 0.01 µg/mL [4, 7]: 108%
- activity at 0.1 µg/mL [4, 7]: 85.8%
- activity at 1 µg/mL [4, 7]: 88.2%
- activity at 10 µg/mL [4, 7]: 96.5%
- activity at 50 µg/mL [4, 7]: 86.4%
- Mean no colonies ± SE ([4]; stearic acid 1ng/ml): 49.5±9.5
- Mean no colonies ± SE ([4]; stearic acid 100 ng/ml): 47.2±9.4
- Mean no colonies ± SE ([4]; stearic acid 1µg/ml): 48.5±9.2
- Mean no colonies ± SE ([4]; stearic acid 10 µg/ml): 52.0±7.7
- Mean no colonies ± SE ([4]; stearic acid 50 µg/ml): 47.5±6.0
- inhibition of colony development ([4]; summary of Table 2): failed to inhibit
